The source of these data is patent US8258119B2, “Anti-cancer drugs and uses relating thereto for metastatic malignant melanoma and other cancers” (Kasina Laila Innova Pharmaceuticals, priority 2008, dated 2012).

For data set [1], the system named is normal human skin epithelial HS.531.sk cells. Description: LDH leakage assay on normal skin cells (tumor selectivity). The data set is classed as cell-based. As to the method: From the data obtained from the MTT assay (Table J), compound 1, compound 6 and compound 13 have been selected and their cytotoxicity potential has been further validated in LDH leakage assay. […] Cytotoxicity potential of DTIC and its derivative compounds were evaluated by measuring the leaked lactate dehydrogenase (LDH) into the culture supernatant (LDH Cytotoxicity Detection Roche Applied Sciences, Germany). The leaked LDH is directly proportional to the cell damage done by the cytotoxic compounds. In brief, cells were treated with test compounds at various concentrations and incubated for 48 h. Vehicle control culture wells received only a maximum of 0.5% DMSO. The cell free culture supernatants were mixed with catalyst and dye solution and allowed to incubate for 15 min at room temperature. Finally, the reaction was stopped and the optical density was measured at 492 nm in a microplate reader (BioRad, USA). The results (mean OD±SD) obtained from quadruplicate wells were used in calculation to determine the cytotoxicity potential (50% of inhibitory concentration, IC50) of the test compounds. A plot of loss of cell viability as indicated by the leakage of LDH versus drug concentration is depicted in FIG. 1.
Next, to check whether the DTIC derivative compounds can selectively kill the melanoma cells without or minimally affecting the normal cells, we assessed the effect of the test compounds on normal human skin epithelial HS.531.sk cells. […] Whereas, 120 μg/ml of DTIC, compound 1, […] caused 5.8%, 4.2%, 2.4%, and 2.4% reduction in normal cell viability, respectively.

For a further data set, the system named is B16F0 cells. The experiment in a line: B16F0 mouse melanoma cell invasion assay (Matrigel). The data set is classed as cell-based. Particulars: 100 μg/ml, 24 h, compared to vehicle or DTIC. As to the method: The inhibitory effects of DTIC and […] on In vitro invasive ability of B16F0 were tested in cell invasion assay performed with by using Matrigel (BME Cultrex®, R&D Systems, USA) coated cell culture inserts (Becton Dickinson, USA) with 8 μm-pore membrane. Equal number (fifty thousands) of B16F0 cells were applied in each insert well and allowed to attach for 2 h at 37° C. and in presence of 5% CO2. Thereafter, the cellular invasion through the matrigel layer was performed in presence or absence of test compounds. Either 100 μg/ml of DTIC or Compound 6 was applied in the lower chamber of the invasion assembly. 0.1% DMSO was applied in the vehicle control culture chambers. After 24 h treatment, the matrigel layer containing cells was removed with cotton plug and the invaded cells on the other side of the membrane were fixed with methanol for 5 min and then stained with Giemsa. The stained membrane was mounted on a glass slide and number invaded cells were counted in 20 random fields (20× objective) under a light microscope (Nikon Eclipse TS 100).

For data set [2], the system named is Vascular Endothelial Growth Factor (VEGF). Description: VEGF expression in B16F0 cells by western blot. The data set is classed as cell-based, mouse. Particulars: 50 μg/ml, 24 h. The protocol:
B16F0 cells were cultivated in Dulbecco's modified Eagle's red medium (DMEM) (Sigma Life Science, USA) containing 10% fetal bovine serum (FBS) and 4.5 g/l D-glucose. Equal number cells (5×10^4) were seeded in culture dishes (35×10 mm, 11.7 cm^2). The cells were treated with either 50 μg/ml of DTIC or […] for 24 h. The cells incubated with only 0.1% DMSO was considered as vehicle control. After 24 h, the cell lysates were prepared and analyzed for Vascular Endothelial Growth Factor (VEGF) expression by western blot assay as described earlier with appropriate modifications (43).
For Western blot analyses, equal amount of B16F0 cell lysate proteins were separated in 12.5% SDS-PAGE under reducing conditions, and transferred onto nitrocellulose membranes (Bio-Rad, USA). The membranes were blocked with SuperBlock (Thermo scientific, USA) and subsequently reacted with VEGF antibody (Abeam, UK) at 4° C. overnight. Bound antibodies were probed with horseradish peroxidase conjugated secondary antibody and the specific immunoreactions were developed with enhanced chemiluminescence (Thermo scientific, USA). […] The images of immunoreactive bands were captured in Kodak Image Station 4000MM (Carestream Health Inc., New Haven, Conn.) and analyzed densitometrically by Kodak molecular Imaging software, Version 4.5.

In data set [3] the test system is B16 F0 mouse melanoma cells. Description: Cell cycle analysis by flow cytometry. The data set is classed as cell-based. The note with it: 24 h, propidium iodide FACS. The protocol:
B16 F0 Cells were treated with the indicated concentrations of either vehicle (0.1% DMSO) or DTIC or Compound 6 for 24 h at different concentrations as indicated. The propidium iodide stained cells were analyzed for the distribution of cell cycle by FACS calibur, and the percentage of distribution at different phases of cell cycle was determined using ModFIT software. Data are shown as one representative of at least three independent experiments.
Cell cycle analysis of Compound 6 and DTIC treated B16F0 cells were analyzed by flow cytometry as described earlier with some modifications (42). Briefly, B16F0 cells were cultivated in DMEM containing 10% fetal bovine serum (FBS) in presence of 4.5 g/l D-glucose. The sub confluent cells were treated with either DTIC or Compound 6 and incubated for 24 h. Cells were harvested and prepared single cell suspension in buffer (PBS+2% FBS). The cells were washed twice with cold PBS and then fixed with cold 70% ethanol for 30 min. Ethanol was removed by centrifugation and the cells were suspended and the cell count was adjusted to 10^6 cells per ml. The cells were washed two times with PBS and then the cells were stained with propidium iodide for 30 min at 37° C. in presence of RNase. Finally, the cells were analyzed on FACS Calibur flow cytometry (BD Biosciences, USA). […]

In the case of `CN(C)/N=N/c1[nH]cnc1C(N)=O` [DTIC, 5-(3,3-dimethyl-1-trizeno)-imidazole-4-carboxamide, reference compound], the “reduction in normal cell viability” value in data set [1] (120 μg/ml) was 5.8%. Moreover, the “effect on normal skin cell growth” value in data set [1] (up to 100 μg/ml) is “do not affect the normal cell skin cell growth”.
Regarding `CN(C)/N=N/c1ccsc1C(=O)O` [Compound 6, 3-[(dimethylamino)diazenyl]thiophene-2-carboxylic acid], in the data set with B16F0 cells, the tumor cell invasion entry is on record as “significantly reduced malignant tumor cell invasion”. Also, the VEGF protein expression result in data set [2] is on record as “down regulation of VEGF protein”. Also, the “effect on cell cycle distribution” value in data set [3] was “induction of cell cycle arrest in G2/M phase”.
